Measured values reported in US10287305B2, “Substituted piperidine compound and use thereof” (Takeda Pharmaceutical Company Limited, priority 2016, dated 2019).

Target: human orexin type 2 receptor (hOX2R) (Homo sapiens (Human), UniProt O43614)
Test: Measurement of orexin type 2 receptor agonist activity (Experimental Example 2-1, FLIPR TETRA, intracellular Ca2+)
Assay type: cell-based
Conditions: CHO dhfr- cells expressing hOX2R; for Emax at 30 µM: value at 30 uM concentration, orexin B as full agonist = 100%; for Emax: read-out: Emax (%)
Text: To obtain a cell clone stably expressing human orexin type 2 receptor, human orexin type 2 receptor cDNA was inserted into pcDNA3.1(+) plasmid vector (Invitrogen), and a plasmid DNA for expression of human orexin type 2 receptor (pcDNA3.1(+)/hOX2R) was cloned. The plasmid DNA was introduced into CHO-dhfr cell by an electroporation method, and human orexin type 2 receptor expressing clone cells were obtained by limiting dilution method by using G418 drug resistance as a selection marker.
Chinese hamster ovary (CHO) dhfr-cells forcibly expressing human orexin type 2 receptor (hOX2R) were seeded in each well of Black clear bottom plate (384 wells) (Becton, Dickinson and Company) by 10,000 cells, and cultured for 16 hr in an MEM-alpha (Nikken-Bio Co., Ltd.) medium containing 100 U/ml penicillin, 100 μg/ml streptomycin, […] G418 (all above Invitrogen), and 10% fetal calf serum (Thermo), under the conditions of 37° C., 5% CO2. […] A test compound was dissolved in dimethyl sulfoxide to 10 mM, and then diluted with assay buffer 2 (20 mM HEPES, Hanks' balanced salt solution (Invitrogen), 0.1% bovine serum albumin). For the reaction, a test compound solution (10 μL) was added using Fluorescent Imaging Plate Reader TETRA (FLIPR TETRA; manufactured by Molecular Devices), a fluorescence value (excitation wavelength 488 nm, measurement wavelength 570 nm) of each well was measured every one second for 1 min, and the agonist activity was determined using the area of the fluorescence value as an indicator of intracellular Ca^2+ concentration.

[1] = agonist activity, 10 nM human orexin B = 100%

human orexin type 2 receptor (hOX2R), sequence (O43614 whole entry): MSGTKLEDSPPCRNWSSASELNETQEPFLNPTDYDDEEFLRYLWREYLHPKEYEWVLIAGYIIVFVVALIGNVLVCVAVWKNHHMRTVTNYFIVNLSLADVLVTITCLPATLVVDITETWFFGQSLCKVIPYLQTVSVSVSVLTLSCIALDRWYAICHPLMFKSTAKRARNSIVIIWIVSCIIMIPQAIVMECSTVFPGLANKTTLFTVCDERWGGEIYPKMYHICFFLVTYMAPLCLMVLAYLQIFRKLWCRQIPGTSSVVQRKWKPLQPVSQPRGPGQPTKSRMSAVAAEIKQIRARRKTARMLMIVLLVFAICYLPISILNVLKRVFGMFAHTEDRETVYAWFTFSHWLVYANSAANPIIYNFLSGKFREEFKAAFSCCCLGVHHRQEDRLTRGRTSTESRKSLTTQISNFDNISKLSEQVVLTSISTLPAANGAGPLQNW

Structure (SMILES)	EC50 [1] [nM]	Emax at 30 µM [%]	EC50 (FLIPR TETRA, Fluo-4AM) [nM]	Emax (FLIPR TETRA, Fluo-4AM) [%]
CCNC(=O)N1CCC[C@H](NS(C)(=O)=O)[C@@H]1COC1CCN(c2ncccn2)CC1 (relative stereo) [Example 118, cis-N-ethyl-3-((methylsulfonyl)amino)-2-(((1-(pyrimidin-2-yl)piperidin-4-yl)oxy)methyl)piperidine-1-carboxamide]	4.6	105	–	–
COCC(=O)N1CCC[C@H](NS(C)(=O)=O)[C@@H]1CO[C@H]1CC[C@@H](c2ccccc2)CC1 (relative stereo) [Example 119, N-(cis-1-(methoxyacetyl)-2-(((cis-4-phenylcyclohexyl)oxy)methyl)piperidin-3-yl)methanesulfonamide]	30	107	–	–
CS(=O)(=O)N[C@H]1CCCN(C(=O)C2COC2)[C@H]1CO[C@H]1CC[C@@H](c2ccccc2)CC1 (relative stereo) [Example 120, N-(cis-1-(oxetan-3-ylcarbonyl)-2-(((cis-4-phenylcyclohexyl)oxy)methyl)piperidin-3-yl)methanesulfonamide]	61	96	–	–
CS(=O)(=O)N[C@H]1CCCN(C(=O)C2CCOCC2)[C@H]1CO[C@H]1CC[C@@H](c2ccccc2)CC1 (relative stereo) [Example 121, N-(cis-2-(((cis-4-phenylcyclohexyl)oxy)methyl)-1-(tetrahydro-2H-pyran-4-ylcarbonyl)piperidin-3-yl)methanesulfonamide]	–	–	8.8	111
CCNC(=O)N1CCC[C@H](NS(C)(=O)=O)[C@@H]1COC1CCN(c2ccccc2)CC1 (relative stereo) [Example 123, cis-N-ethyl-3-((methylsulfonyl)amino)-2-(((1-phenylpiperidin-4-yl)oxy)methyl)piperidine-1-carboxamide]	–	–	390	120
CCNC(=O)N1CCC[C@H](NS(C)(=O)=O)[C@@H]1COC1CCC(OC)CC1 (relative stereo) [Example 126, cis-N-ethyl-2-(((4-methoxycyclohexyl)oxy)methyl)-3-((methylsulfonyl)amino)piperidine-1-carboxamide]	–	–	2600	85
CC(=O)N1CCC[C@H](NS(C)(=O)=O)[C@@H]1CO[C@H]1CC[C@@H](C)CC1 (relative stereo) [Example 128, N-(cis-1-acetyl-2-(((cis-4-methylcyclohexyl)oxy)methyl)piperidin-3-yl)methanesulfonamide]	–	–	2400	88
CCNC(=O)N1CCC[C@H](NS(C)(=O)=O)[C@@H]1CO[C@H]1CC[C@@H](C)CC1 (relative stereo) [Example 129, cis-N-ethyl-2-(((cis-4-methylcyclohexyl)oxy)methyl)-3-((methylsulfonyl)amino)piperidine-1-carboxamide]	–	–	39	96
CCNC(=O)N1CCC[C@H](NS(C)(=O)=O)[C@@H]1CO[C@H]1C[C@H](c2ccccc2)C1 (relative stereo) [Example 130, cis-N-ethyl-3-((methylsulfonyl)amino)-2-(((trans-3-phenylcyclobutyl)oxy)methyl)piperidine-1-carboxamide]	–	–	460	96
CN(C)CC(=O)N1CCC[C@H](NS(C)(=O)=O)[C@@H]1CO[C@H]1CC[C@@H](c2ccccc2)CC1 (relative stereo) [Example 133, N-(cis-1-(N,N-dimethylglycyl)-2-(((cis-4-phenylcyclohexyl)oxy)methyl)piperidin-3-yl)methanesulfonamide]	–	–	1000	97
CCNC(=O)N1CCC[C@H](NS(C)(=O)=O)[C@@H]1CO[C@H]1CC[C@@H](c2cccc(F)c2F)CC1 (relative stereo) [Example 136, cis-2-(((cis-4-(2,3-difluorophenyl)cyclohexyl)oxy)methyl)-N-ethyl-3-((methylsulfonyl)amino)piperidine-1-carboxamide]	–	–	0.22	102
CCNC(=O)N1CCC[C@H](NS(C)(=O)=O)[C@@H]1CO[C@H]1CC[C@@H](c2cnn(C)c2)CC1 (relative stereo) [Example 137, cis-N-ethyl-2-(((cis-4-(1-methyl-1H-pyrazol-4-yl)cyclohexyl)oxy)methyl)-3-((methylsulfonyl)amino)piperidine-1-carboxamide]	–	–	240	101
CS(=O)(=O)N[C@H]1CCCN(C(=O)Cn2cccn2)[C@H]1CO[C@H]1CC[C@@H](c2ccccc2)CC1 (relative stereo) [Example 138, N-(cis-2-(((cis-4-phenylcyclohexyl)oxy)methyl)-1-(1H-pyrazol-1-ylacetyl)piperidin-3-yl)methanesulfonamide]	–	–	22	94
CS(=O)(=O)N[C@H]1CCCN(C(=O)C(F)F)[C@H]1CO[C@H]1CC[C@@H](c2ccccc2)CC1 (relative stereo) [Example 139, N-(cis-1-(difluoroacetyl)-2-(((cis-4-phenylcyclohexyl)oxy)methyl)piperidin-3-yl)methanesulfonamide]	–	–	–	103
CCNC(=O)N1CCC[C@H](NS(C)(=O)=O)[C@@H]1CO[C@H]1CO[C@@H](c2ccccc2)OC1 (relative stereo) [Example 140, cis-N-ethyl-3-((methylsulfonyl)amino)-2-(((cis-2-phenyl-1,3-dioxan-5-yl)oxy)methyl)piperidine-1-carboxamide]	–	–	390	92
CC(=O)N1CCC[C@H](NS(C)(=O)=O)[C@@H]1CO[C@H]1CC[C@@H](c2ccc(F)c(F)c2)CC1 (relative stereo) [Example 141, N-(cis-1-acetyl-2-(((cis-4-(3,4-difluorophenyl)cyclohexyl)oxy)methyl)piperidin-3-yl)methanesulfonamide]	–	–	460	95
CS(=O)(=O)N[C@H]1CCCN[C@H]1CO[C@H]1CC[C@@H](c2ccc(F)cc2F)CC1 (relative stereo) [Example 142, N-(cis-2-(((cis-4-(2,4-difluorophenyl)cyclohexyl)oxy)methyl)piperidin-3-yl)methanesulfonamide]	–	–	4000	96
Cn1ccc([C@H]2CC[C@@H](OC[C@@H]3NCCC[C@@H]3NS(C)(=O)=O)CC2)n1 (relative stereo) [Example 143, N-(cis-2-(((cis-4-(1-methyl-1H-pyrazol-3-yl)cyclohexyl)oxy)methyl)piperidin-3-yl)methanesulfonamide]	–	–	–	96
CCNC(=O)N1CCC[C@H](NS(C)(=O)=O)[C@@H]1CO[C@H]1CC[C@@H](c2ccc(F)c(F)c2)CC1 (relative stereo) [Example 144, cis-2-(((cis-4-(3,4-difluorophenyl)cyclohexyl)oxy)methyl)-N-ethyl-3-((methylsulfonyl)amino)piperidine-1-carboxamide]	–	–	1	104
CC(=O)N1CCC[C@H](NS(C)(=O)=O)[C@@H]1CO[C@H]1CC[C@@H](c2ccc(F)cc2F)CC1 (relative stereo) [Example 145, N-(cis-1-acetyl-2-(((cis-4-(2,4-difluorophenyl)cyclohexyl)oxy)methyl)piperidin-3-yl)methanesulfonamide]	–	–	810	106
CCNC(=O)N1CCC[C@H](NS(C)(=O)=O)[C@@H]1CO[C@H]1CC[C@@H](c2ccc(F)cc2F)CC1 (relative stereo) [Example 146, cis-2-(((cis-4-(2,4-difluorophenyl)cyclohexyl)oxy)methyl)-N-ethyl-3-((methylsulfonyl)amino)piperidine-1-carboxamide]	–	–	2.5	100
COC(=O)N1CCC[C@H](NS(C)(=O)=O)[C@@H]1COC1CCN(c2ncccn2)CC1 (relative stereo) [Example 151, methyl cis-3-((methylsulfonyl)amino)-2-(((1-(pyrimidin-2-yl)piperidin-4-yl)oxy)methyl)piperidine-1-carboxylate]	–	–	490	107
CS(=O)(=O)N[C@H]1CCCN(S(C)(=O)=O)[C@H]1CO[C@H]1CC[C@@H](c2ccccc2)CC1 (relative stereo) [Example 152, N-(cis-1-(methylsulfonyl)-2-(((cis-4-phenylcyclohexyl)oxy)methyl)piperidin-3-yl)methanesulfonamide]	–	–	–	96
COC(=O)N1CCC[C@H](NS(C)(=O)=O)[C@@H]1CO[C@H]1CC[C@@H](c2ccn(C)n2)CC1 (relative stereo) [Example 154, methyl cis-2-(((cis-4-(1-methyl-1H-pyrazol-3-yl)cyclohexyl)oxy)methyl)-3-((methylsulfonyl)amino)piperidine-1-carboxylate]	–	–	2400	94
CC(C)(C)OC(=O)N1CCC[C@H](NS(C)(=O)=O)[C@@H]1CO[C@H]1CC[C@@H](c2ccccc2)CC1 (relative stereo) [Example 155, tert-butyl cis-3-((methylsulfonyl)amino)-2-(((cis-4-phenylcyclohexyl)oxy)methyl)piperidine-1-carboxylate]	–	–	–	95
